Laboratory results taken from paper PMC5218480 (PLoS ONE, 2017).

Tested on: MV-4-11 cells
Assay: Gene expression microarray analysis (Affymetrix PrimeView) and GSEA
Assay type: cell-based, human
Design: RFU PODN (11730768_x_at) / Fold change /veh PODN (11730768_x_at) / RFU LINC00158 (11744669_a_at) / Fold change /veh LINC00158 (11744669_a_at) / RFU DUSP10 (11751237_a_at) / Fold change /veh DUSP10 (11751237_a_at) / RFU ID3 (11757404_x_at) / Fold change /veh ID3 (11757404_x_at) / RFU PLEKHG5 (11737974_s_at) / Fold change /veh PLEKHG5 (11737974_s_at) / RFU LRRC4B (11730491_at) / Fold change /veh LRRC4B (11730491_at) / RFU GIMAP4 (11747438_a_at) / Fold change /veh GIMAP4 (11747438_a_at) / RFU KRT8 (11758183_x_at) / Fold change /veh KRT8 (11758183_x_at) / RFU CNN1 (11734310_a_at) / Fold change /veh CNN1 (11734310_a_at) / RFU VPS37D (11726825_at) / Fold change /veh VPS37D (11726825_at) / RFU C10orf10 (11716522_x_at) / Fold change /veh C10orf10 (11716522_x_at) / RFU KIR2DL2 /// KIR2DL4 /// KIR2DL5A /// KIR2DL5B /// KIR2DS1 /// KIR2DS2 /// KIR2DS3 /// KIR2DS4 /// KIR3DL3 /// KIR3DL3 /// KIR3DS1 (11738374_at) / Fold change /veh KIR2DL2 /// KIR2DL4 /// KIR2DL5A /// KIR2DL5B /// KIR2DS1 /// KIR2DS2 /// KIR2DS3 /// KIR2DS4 /// KIR3DL3 /// KIR3DL3 /// KIR3DS1 (11738374_at) / RFU C1QL1 (11718748_at) / Fold change /veh C1QL1 (11718748_at) / RFU TMPRSS4 (11747572_a_at) / Fold change /veh TMPRSS4 (11747572_a_at) / RFU HAMP (11756126_x_at) / Fold change /veh HAMP (11756126_x_at) / RFU RNFT2 (11725882_a_at) / Fold change /veh RNFT2 (11725882_a_at) / RFU NR4A2 (11747474_a_at) / Fold change /veh NR4A2 (11747474_a_at) / RFU ABCC12 (11746883_a_at) / Fold change /veh ABCC12 (11746883_a_at) / RFU TMEM136 (11760407_x_at) / Fold change /veh TMEM136 (11760407_x_at) / RFU CLDN22 /// WWC2 (11732394_at) / Fold change /veh CLDN22 /// WWC2 (11732394_at) / RFU HLA-DPB1 (11760878_x_at) / Fold change /veh HLA-DPB1 (11760878_x_at) / RFU SPINT1 (11716480_a_at) / Fold change /veh SPINT1 (11716480_a_at) / RFU GAP43 (11754022_s_at) / Fold change /veh GAP43 (11754022_s_at) / RFU A4GNT (11735810_at) / Fold change /veh A4GNT (11735810_at) / RFU PRB3 (11715151_x_at) / Fold change /veh PRB3 (11715151_x_at) / RFU TUBB4B (11761932_at) / Fold change /veh TUBB4B (11761932_at) / RFU CAPN14 (11732068_a_at) / Fold change /veh CAPN14 (11732068_a_at) / RFU TMCC2 (11721928_a_at) / Fold change /veh TMCC2 (11721928_a_at) / RFU IRGQ (11745062_a_at) / Fold change /veh IRGQ (11745062_a_at) / RFU FAM174B (11720279_a_at) / Fold change /veh FAM174B (11720279_a_at) / RFU TMPRSS4 (11748680_a_at) / Fold change /veh TMPRSS4 (11748680_a_at) / RFU FAM212B (11763350_a_at) / Fold change /veh FAM212B (11763350_a_at) / RFU PLEKHG5 (11743358_a_at) / Fold change /veh PLEKHG5 (11743358_a_at) / RFU ZSCAN30 (11745921_a_at) / Fold change /veh ZSCAN30 (11745921_a_at) / RFU CMKLR1 (11741424_a_at) / Fold change /veh CMKLR1 (11741424_a_at) / RFU LOC101060620 /// MAPK8IP1 (11723275_at) / Fold change /veh LOC101060620 /// MAPK8IP1 (11723275_at) / RFU SPTSSB (11747773_x_at) / Fold change /veh SPTSSB (11747773_x_at) / RFU PRSS12 (11739890_at) / Fold change /veh PRSS12 (11739890_at) / RFU BIN1 (11741810_x_at) / Fold change /veh BIN1 (11741810_x_at) / RFU WNT11 (11732464_a_at) / Fold change /veh WNT11 (11732464_a_at) / RFU C10orf10 (11716521_a_at) / Fold change /veh C10orf10 (11716521_a_at) / RFU C5orf56 (11738089_at) / Fold change /veh C5orf56 (11738089_at) / RFU CYB561 (11721691_x_at) / Fold change /veh CYB561 (11721691_x_at) / RFU ANKRD19P (11752326_a_at) / Fold change /veh ANKRD19P (11752326_a_at) / RFU OR2T12 /// OR2T33 /// OR2T8 (11738714_s_at) / Fold change /veh OR2T12 /// OR2T33 /// OR2T8 (11738714_s_at) / RFU VCAN (11748164_a_at) / Fold change /veh VCAN (11748164_a_at) / RFU JSRP1 (11732532_at) / Fold change /veh JSRP1 (11732532_at) / RFU KRTAP10-11 (11738290_x_at) / Fold change /veh KRTAP10-11 (11738290_x_at) / RFU MYO3A (11730013_a_at) / Fold change /veh MYO3A (11730013_a_at) / RFU EBF3 (11725865_a_at) / Fold change /veh EBF3 (11725865_a_at) / RFU CAMK2N1 (11719241_x_at) / Fold change /veh CAMK2N1 (11719241_x_at) / RFU C5orf56 (11738088_a_at) / Fold change /veh C5orf56 (11738088_a_at) / RFU OLFML3 (11715873_a_at) / Fold change /veh OLFML3 (11715873_a_at) / RFU LOC100653217 /// NTM (11731650_a_at) / Fold change /veh LOC100653217 /// NTM (11731650_a_at) / RFU MAPK11 (11762145_a_at) / Fold change /veh MAPK11 (11762145_a_at) / RFU FIZ1 (11724087_x_at) / Fold change /veh FIZ1 (11724087_x_at) / RFU OASL (11726364_x_at) / Fold change /veh OASL (11726364_x_at) / RFU SOX15 (11748057_x_at) / Fold change /veh SOX15 (11748057_x_at) / RFU CD79A (11719716_a_at) / Fold change /veh CD79A (11719716_a_at) / RFU HIST1H1D (11736915_at) / Fold change /veh HIST1H1D (11736915_at) / RFU CASKIN2 (11723855_a_at) / Fold change /veh CASKIN2 (11723855_a_at) / RFU LOC730098 (11760151_x_at) / Fold change /veh LOC730098 (11760151_x_at) / RFU OR4N2 (11742367_at) / Fold change /veh OR4N2 (11742367_at) / RFU PRRT2 (11749266_a_at) / Fold change /veh PRRT2 (11749266_a_at) / RFU SNX32 (11753110_a_at) / Fold change /veh SNX32 (11753110_a_at) / RFU CDHR5 (11726645_a_at) / Fold change /veh CDHR5 (11726645_a_at) / RFU RCAN1 (11760418_a_at) / Fold change /veh RCAN1 (11760418_a_at) / RFU FAM167A (11723789_a_at) / Fold change /veh FAM167A (11723789_a_at) / RFU FAM26E (11764081_at) / Fold change /veh FAM26E (11764081_at) / RFU ISYNA1 (11749810_s_at) / Fold change /veh ISYNA1 (11749810_s_at) / RFU ACY1 (11761880_at) / Fold change /veh ACY1 (11761880_at) / RFU 11764098_at / Fold change /veh 11764098_at / RFU SAMD14 (11745864_x_at) / Fold change /veh SAMD14 (11745864_x_at) / RFU NPB (11741838_a_at) / Fold change /veh NPB (11741838_a_at) / RFU TMPRSS6 (11731388_a_at) / Fold change /veh TMPRSS6 (11731388_a_at) / RFU KRTAP10-2 (11738614_at) / Fold change /veh KRTAP10-2 (11738614_at) / RFU ARHGAP8 /// PRR5-ARHGAP8 (11727945_x_at) / Fold change /veh ARHGAP8 /// PRR5-ARHGAP8 (11727945_x_at) / RFU KRTAP5-7 /// NADSYN1 (11734609_at) / Fold change /veh KRTAP5-7 /// NADSYN1 (11734609_at) / RFU RASL12 (11751679_a_at) / Fold change /veh RASL12 (11751679_a_at) / RFU CDKN2B (11736163_a_at) / Fold change /veh CDKN2B (11736163_a_at) / RFU PRF1 (11729649_at) / Fold change /veh PRF1 (11729649_at) / RFU, ZNF638 /// ZNF638-IT1 / Fold change vs veh, ZNF638 /// ZNF638-IT1 / RFU, PANK3 / Fold change vs veh, PANK3 / RFU, SH3YL1 / Fold change vs veh, SH3YL1 / RFU, ZEB2 / Fold change vs veh, ZEB2 / RFU, NRIP1 / Fold change vs veh, NRIP1 / RFU, PTTG1IP / Fold change vs veh, PTTG1IP / RFU, CAPN2 / Fold change vs veh, CAPN2 / RFU, MED14 / Fold change vs veh, MED14 / RFU, SNORA58 / Fold change vs veh, SNORA58 / RFU, C1orf63 / Fold change vs veh, C1orf63 / RFU, LRRFIP1 / Fold change vs veh, LRRFIP1 / RFU, NDUFAF7 / Fold change vs veh, NDUFAF7 / RFU, SLC12A2 / Fold change vs veh, SLC12A2 / RFU, IBTK / Fold change vs veh, IBTK / RFU, ESF1 / Fold change vs veh, ESF1 / Fold change vs veh, TMEM50B / RFU, TAOK1 / Fold change vs veh, TAOK1 / RFU, ACBD3 / Fold change vs veh, ACBD3 / RFU, TMA16 / Fold change vs veh, TMA16 / RFU, RWDD3 / Fold change vs veh, RWDD3 / RFU, BCAT1 / Fold change vs veh, BCAT1 / RFU, EDEM3 / Fold change vs veh, EDEM3 / RFU, TMEM33 / Fold change vs veh, TMEM33 / RFU, WDR75 / Fold change vs veh, WDR75 / RFU, AHCTF1 / Fold change vs veh, AHCTF1 / RFU, TFRC / Fold change vs veh, TFRC / RFU, ZDHHC17 / Fold change vs veh, ZDHHC17 / RFU, NOM1 / Fold change vs veh, NOM1 / RFU, ARL8B / Fold change vs veh, ARL8B / RFU, ZBTB11 / Fold change vs veh, ZBTB11 / RFU, TAMM41 / Fold change vs veh, TAMM41 / RFU, KIAA1704 /// LOC100996395 / Fold change vs veh, KIAA1704 /// LOC100996395 / RFU, ING1 / Fold change vs veh, ING1 / RFU, TRMT61B / Fold change vs veh, TRMT61B / RFU, FUBP3 / Fold change vs veh, FUBP3 / RFU, TP53 / Fold change vs veh, TP53 / RFU, TNKS2 / Fold change vs veh, TNKS2 / RFU, ZFP14 / Fold change vs veh, ZFP14 / RFU, ACTR2 / Fold change vs veh, ACTR2 / RFU, PPP3R1 / Fold change vs veh, PPP3R1 / RFU, PIK3R1 / Fold change vs veh, PIK3R1 / RFU, HNRNPA1 / Fold change vs veh, HNRNPA1 / RFU, RNF170 / Fold change vs veh, RNF170 / RFU, ZNF28 / Fold change vs veh, ZNF28 / RFU, RNGTT / Fold change vs veh, RNGTT / RFU, OGT / Fold change vs veh, OGT / RFU, BRD1 / Fold change vs veh, BRD1 / RFU, MARS / Fold change vs veh, MARS / RFU, ZNF655 / Fold change vs veh, ZNF655 / RFU, FAHD1 / Fold change vs veh, FAHD1 / RFU, BDP1 / Fold change vs veh, BDP1 / RFU, LRRCC1 / Fold change vs veh, LRRCC1 / RFU, ARID1A / Fold change vs veh, ARID1A / RFU, ZNF146 / Fold change vs veh, ZNF146 / RFU, ZNF330 / Fold change vs veh, ZNF330 / RFU, GPN3 / Fold change vs veh, GPN3 / RFU, C9orf123 / Fold change vs veh, C9orf123 / RFU, N4BP2L2 / Fold change vs veh, N4BP2L2 / RFU, ARFIP1 / Fold change vs veh, ARFIP1 / RFU, FAM179B / Fold change vs veh, FAM179B / RFU, BCL10 / Fold change vs veh, BCL10 / RFU, UHRF1BP1L / Fold change vs veh, UHRF1BP1L / RFU, BET1 / Fold change vs veh, BET1 / RFU, CNOT2 / Fold change vs veh, CNOT2 / RFU, ZNF268 / Fold change vs veh, ZNF268 / Fold change vs veh, ZNF507 / RFU, DGCR2 / Fold change vs veh, DGCR2 / RFU, WDSUB1 / Fold change vs veh, WDSUB1 / Fold change vs veh, HSP90B1 /// MIR3652 / RFU, ADSS / Fold change vs veh, ADSS / RFU, GK / Fold change vs veh, GK / RFU, ZNF148 / Fold change vs veh, ZNF148 / RFU, TAF9 / Fold change vs veh, TAF9 / RFU, SLC1A5 / Fold change vs veh, SLC1A5 / RFU, SLMO2 / Fold change vs veh, SLMO2 / RFU, ABCC4 / Fold change vs veh, ABCC4 / RFU, LOC101060439 /// RAP1B / Fold change vs veh, LOC101060439 /// RAP1B / RFU, RFX7 / Fold change vs veh, RFX7 / RFU, GTPBP10 / Fold change vs veh, GTPBP10 / RFU, CNEP1R1 / Fold change vs veh, CNEP1R1 / RFU, BIVM-ERCC5 /// ERCC5 / Fold change vs veh, BIVM-ERCC5 /// ERCC5 / RFU, ILF3 / Fold change vs veh, ILF3 / RFU 11762660_at / Fold change /veh 11762660_at / RFU VCAN (11757783_s_at) / Fold change /veh VCAN (11757783_s_at) / RFU DDX43 (11728927_at) / Fold change /veh DDX43 (11728927_at) / RFU KRT8 (11758188_x_at) / Fold change /veh KRT8 (11758188_x_at) / RFU NKD1 (11759106_at) / Fold change /veh NKD1 (11759106_at) / RFU SRD5A1 (11742802_a_at) / Fold change /veh SRD5A1 (11742802_a_at) / RFU TPSAB1 /// TPSB2 (11721975_s_at) / Fold change /veh TPSAB1 /// TPSB2 (11721975_s_at) / RFU GSTM3 (11746129_a_at) / Fold change /veh GSTM3 (11746129_a_at) / RFU IL23R (11737362_x_at) / Fold change /veh IL23R (11737362_x_at) / RFU TMEM51 (11727254_a_at) / Fold change /veh TMEM51 (11727254_a_at) / RFU PIWIL2 (11732686_x_at) / Fold change /veh PIWIL2 (11732686_x_at) / RFU ORM1 (11744905_x_at) / Fold change /veh ORM1 (11744905_x_at) / RFU CCDC152 (11743942_at) / Fold change /veh CCDC152 (11743942_at) / RFU ECM1 (11717891_a_at) / Fold change /veh ECM1 (11717891_a_at) / RFU IL23R (11748794_a_at) / Fold change /veh IL23R (11748794_a_at) / RFU TNFAIP8L3 (11732012_x_at) / Fold change /veh TNFAIP8L3 (11732012_x_at) / RFU MBOAT4 (11741988_at) / Fold change /veh MBOAT4 (11741988_at) / RFU 11764193_at / Fold change /veh 11764193_at / RFU TMEM53 (11763286_at) / Fold change /veh TMEM53 (11763286_at) / RFU MAGEB2 (11727129_at) / Fold change /veh MAGEB2 (11727129_at) / RFU TMEM200A (11744735_a_at) / Fold change /veh TMEM200A (11744735_a_at) / RFU CCDC152 (11751479_a_at) / Fold change /veh CCDC152 (11751479_a_at) / RFU FAM211A (11726209_a_at) / Fold change /veh FAM211A (11726209_a_at) / RFU RGS16 (11746705_a_at) / Fold change /veh RGS16 (11746705_a_at) / RFU VCAN (11755009_s_at) / Fold change /veh VCAN (11755009_s_at) / RFU RHOB (11743442_s_at) / Fold change /veh RHOB (11743442_s_at) / RFU RGS16 (11720943_a_at) / Fold change /veh RGS16 (11720943_a_at) / RFU RGS16 (11720944_at) / Fold change /veh RGS16 (11720944_at) / RFU, VPS4B / Fold change vs veh, VPS4B / RFU, CREB1 / Fold change vs veh, CREB1 / RFU, DNAJC13 / Fold change vs veh, DNAJC13 / RFU, GNAQ / Fold change vs veh, GNAQ / RFU, CDK5R1 / Fold change vs veh, CDK5R1 / RFU, ZRANB3 / Fold change vs veh, ZRANB3 / RFU, CUL4A / Fold change vs veh, CUL4A / RFU, CCNY / Fold change vs veh, CCNY / RFU, UFL1 / Fold change vs veh, UFL1 / RFU, COG3 / Fold change vs veh, COG3 / RFU, DIAPH2 / Fold change vs veh, DIAPH2 / RFU, SKA2 / Fold change vs veh, SKA2 / RFU, AFF3 / Fold change vs veh, AFF3 / RFU, LMF1 / Fold change vs veh, LMF1 / RFU, IPO11 / Fold change vs veh, IPO11 / RFU, DFFB / Fold change vs veh, DFFB / RFU, FOXP1 / Fold change vs veh, FOXP1 / RFU, CARD8 / Fold change vs veh, CARD8 / RFU, STRN3 / Fold change vs veh, STRN3 / RFU, ADK / Fold change vs veh, ADK / RFU, RASSF2 / Fold change vs veh, RASSF2 / RFU, WIPF1 / Fold change vs veh, WIPF1 / RFU, LARP1B / Fold change vs veh, LARP1B / RFU, RASA1 / Fold change vs veh, RASA1 / RFU, RB1 / Fold change vs veh, RB1 / RFU, PPFIA1 / Fold change vs veh, PPFIA1 / RFU, MAT2A / Fold change vs veh, MAT2A / RFU, CCT5 / Fold change vs veh, CCT5 / RFU, WDR92 / Fold change vs veh, WDR92 / RFU, CUX1 / Fold change vs veh, CUX1 / RFU, TTC7A / Fold change vs veh, TTC7A / RFU, TMEM135 / Fold change vs veh, TMEM135 / RFU, DEPTOR / Fold change vs veh, DEPTOR / RFU, CPM / Fold change vs veh, CPM / RFU, DNAJB6 / Fold change vs veh, DNAJB6 / RFU, CACNA2D3 / Fold change vs veh, CACNA2D3 / RFU, DTX4 / Fold change vs veh, DTX4 / RFU, TFCP2 / Fold change vs veh, TFCP2 / RFU, GMCL1 /// GMCL1P1 / Fold change vs veh, GMCL1 /// GMCL1P1 / RFU, AEBP2 / Fold change vs veh, AEBP2 / RFU, SNHG1 /// SNORD22 /// SNORD25 /// SNORD26 /// SNORD27 /// SNORD28 /// SNORD29 /// SNORD31 / Fold change vs veh, SNHG1 /// SNORD22 /// SNORD25 /// SNORD26 /// SNORD27 /// SNORD28 /// SNORD29 /// SNORD31 / Fold change (Aza/veh), C12orf56 (ProbeSet 11735607_a_at) / Fold change (ACY-1035/veh), C12orf56 (ProbeSet 11735607_a_at) / Fold change (Aza/veh), FGFR1OP (ProbeSet 11751329_s_at) / Fold change (ACY-1035/veh), FGFR1OP (ProbeSet 11751329_s_at) / Fold change (Aza/veh), VPS36 (ProbeSet 11739960_a_at) / Fold change (ACY-1035/veh), VPS36 (ProbeSet 11739960_a_at) / RFU SYPL1 (11715823_x_at) / Fold change /veh SYPL1 (11715823_x_at) / RFU IGFBP7 (11715501_s_at) / Fold change /veh IGFBP7 (11715501_s_at) / RFU REEP3 (11722064_at) / Fold change /veh REEP3 (11722064_at) / RFU IGLL1 (11728026_x_at) / Fold change /veh IGLL1 (11728026_x_at): dose or concentration left out as unconfirmed
Settings: ProbeSet 11739696_s_at; LIST D

With `Nc1ncn([C@@H]2O[C@H](CO)[C@@H](O)[C@H]2O)c(=O)n1` [azacitidine] the “Fold change vs veh, AFF3” value was 0.52.
